Reference: patent publication US20130116231A1, “TYROSINE KINASE INHIBITORS” (Merck Sharp & Dohme Corp., priority 2010, published 2013)

These molecules were tested against T1, human c-Met (Homo sapiens, UniProt P08581) (assay: in vitro kinase assay (homogeneous time-resolved tyrosine kinase assay, METKA)). Conditions: recombinant GST-tagged c-Met cytosolic domain, HTRF, 50 μM MgATP; read-out: Biological Activity (METKA IC50) Activity Code.
T1 construct: Recombinant GST-tagged cytosolic domains of human c-Met; 6xHis; made in house; host or cells: Sf9 or Sf21 insect cells (baculovirus)
Type: biochemical
Description: Recombinant GST-tagged cytosolic domains of human c-Met and other receptor tyrosine kinases including mouse c-Met, human Ron, KDR, IGFR, EGFR, FGFR, Mer, TrkA and Tie2 are used to determine whether the compounds of the instant invention modulate the enzymatic activities of these kinases.
Soluble recombinant GST-tagged cytosolic domains of c-Met and other receptor tyrosine kinases are expressed in a baculovirus system (Pharmingen) according to a protocol recommended by the manufacturer. The c-DNA encoding each cytosolic domain is subcloned into a baculovirus expression vector (pGcGHLT-A, B or C, Pharmingen) containing an in frame 6× histidine tag and a GST tag. The resulting plasmid construct and BaculoGold baculovirus DNA (Pharmingen) are used to co-transfect Sf9 or Sf21 insect cells. After confirming expression of GST-tagged kinase fusion, a high titer recombinant baculovirus stock is produced, expression conditions are optimized, and a scaled up expression of rat KDR-GST fusion is performed. The fusion kinase is then purified from the insect cell lysate by affinity chromatography using glutathione agarose (Pharmingen). The purified protein is dialyzed against 50% glycerol, 2 mM DTT, 50 mM Tris-HCl (pH 7.4) and stored at −20° C. The protein concentrations of the fusion proteins are determined using Coomassie Plus Protein Assay (Pierce) with BSA as standard.
The kinase activities of c-Met and other kinases are measured using a modified version of the homogeneous time-resolved tyrosine kinase assay described by Park et al. (1999, Anal. Biochem. 269:94-104).
The procedure for determining the potency of a compound to inhibit c-Met kinase comprises the following steps: • 1. Prepare 3-fold serial diluted compound solutions in 100% dimethyl sulfoxide (DMSO) at 20× of the desired final concentrations in a 96 well plate. • 2. Prepare a master reaction mix containing 6.67 mM MgCl2, 133.3 mM NaCl, 66.7 mM Tris-HCl (pH 7.4), 0.13 mg/ml BSA, 2.67 mM dithiothreitol, 0.27 nM recombinant c-Met and 666.7 nM biotinylated synthetic peptide substrate (biotin-ahx-EQEDEPEGDYFEWLE-CONH2) (SEQ.ID.NO.:1). • 3. In a black assay plate, add 2.5 μl of compound solution (or DMSO) and 37.5 μl of master reaction mix per well. Initiate the kinase reaction by adding 10 μl of 0.25 mM MgATP per well. Allow the reactions to proceed for 80 min at room temperature. The final conditions for the reaction are 0.2 nM c-Met, 0.5 μM substrate, 50 μM MgATP, […], 100 mM NaCl, 2 mM DTT, 0.1 mg/ml BSA, 50 mM Tris (pH 7.4) and 5% DMSO. • 4. Stop the kinase reaction with 50 μl of Stop/Detection buffer containing 10 mM EDTA, 25 mM HEPES, 0.1% TRITON X-100, 0.126 μg/ml Eu-chelate labeled anti-phosphotyrosine antibody PY20 (cat. #AD0067, PerkinElmer) and 45 μg/ml Streptavidin-allophycocyanin conjugate (cat. #PJ25S, Prozyme). • 5. Read HTRF signals on a Victor reader (PerkinElmer) in HTRF mode after 60 min. • 6. IC50 is determined by fitting the observed relationship between compound concentration and HTRF signal with a 4-parameter logistic equation. Essentially the same procedure was used to determine the potency of compounds to inhibit mouse c-Met, human Ron, KDR, IGFR, EGFR, FGFR, Mer, TrkA and Tie2 except that the concentration of enzyme varied in individual assays (0.2 nM mouse c-Met; 2.5 nM Ron, 8 nM KDR; 0.24 nM IGFR; 0.24 nM EGFR; 0.14 nM FGFR; 16 nM Mer; 8 nM TrkA; 8 nM Tie2).

T1 sequence (P08581 956-1390 limits assumed): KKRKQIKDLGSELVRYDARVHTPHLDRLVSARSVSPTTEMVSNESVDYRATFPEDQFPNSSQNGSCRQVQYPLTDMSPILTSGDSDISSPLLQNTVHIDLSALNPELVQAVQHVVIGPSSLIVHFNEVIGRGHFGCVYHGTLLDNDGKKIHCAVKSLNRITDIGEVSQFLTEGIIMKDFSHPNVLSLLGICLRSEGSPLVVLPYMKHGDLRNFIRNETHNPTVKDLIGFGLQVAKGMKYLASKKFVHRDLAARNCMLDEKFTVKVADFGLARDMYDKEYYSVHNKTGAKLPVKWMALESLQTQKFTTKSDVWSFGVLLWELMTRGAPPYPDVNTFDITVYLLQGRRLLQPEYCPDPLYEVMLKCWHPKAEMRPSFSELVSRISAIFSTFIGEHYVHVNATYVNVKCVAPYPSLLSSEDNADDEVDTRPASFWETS

| IC50 [nM] | Structure (SMILES) |
| --- | --- |
| < 100 | CCn1cc(-n2ccc(=O)c(COc3ccc4ncc(-c5ccccc5F)cc4c3)n2)cn1 [Example 83, 1-(1-ethyl-1H-pyrazol-4-yl)-3-({[3-(2-fluorophenyl)quinolin-6-yl]oxy}methyl)pyridazin-4(1H)-one] |
| < 100 | CCn1cc(-n2ccc(=O)c(COc3ccc4ncc(-c5ccncc5)cc4c3)n2)cn1 [Example 80, 1-(1-ethyl-1H-pyrazol-4-yl)-3-{[(3-pyridin-4-ylquinolin-6-yl)oxy]methyl}pyridazin-4(1H)-one] |
| < 100 | COCCOc1cnc2ccc(OCc3nn(-c4cccc(Br)c4)ccc3=O)cc2c1 [Example 38, 1-(3-bromophenyl)-3-({[3-(2-methoxyethoxy)quinolin-6-yl]oxy}methyl)pyridazin-4(1H)-one] |
| 1000 to 3000 | COC(=O)C(Cc1nn(-c2cnn(C)c2)ccc1=O)c1ccc2ncccc2c1 (stereo not shown) [Example 150, Methyl 3-[1-(1-methyl-1H-pyrazol-4-yl)-4-oxo-1,4-dihydropyridazin-3-yl]-2-(quinolin-6-yl)propanoate] |
| < 100 | COc1ccnc2ccc(CCc3nn(-c4cnn(C)c4)ccc3=O)cc12 [Example 59, 3-[2-(4-methoxyquinolin-6-yl)ethyl]-1-(1-methyl-1H-pyrazol-4-yl)pyridazin-4(1H)-one] |
| < 100 | N#Cc1cccc(-n2ccc(=O)c(COc3ccc4ncccc4c3)n2)c1 [Example 3, 3-{4-oxo-3-[(quinolin-6-yloxy)methyl]pyridazin-1(4H)-yl}benzonitrile] |
| < 100 | CCn1cc(-n2ccc(=O)c(COc3ccc4ncc(OCC(F)F)cc4c3)n2)cn1 [Example 68, 3-({[3-(2,2-difluoroethoxy)quinolin-6-yl]oxy}methyl)-1-(1-ethyl-1H-pyrazol-4-yl)pyridazin-4(1H)-one] |
| < 100 | CCOc1cnc2ccc(OCc3nn(-c4cc(F)cc(F)c4)ccc3=O)cc2c1 [Example 47, 1-(3,5-difluorophenyl)-3-{[(3-ethoxyquinolin-6-yl)oxy]methyl}pyridazin-4(1H)-one] |
| < 100 | CCOc1cnc2ccc(OCc3nn(-c4ccc(F)c(F)c4)ccc3=O)cc2c1 [Example 46, 1-(3,4-difluorophenyl)-3-{[(3-ethoxyquinolin-6-yl)oxy]methyl}pyridazin-4(1H)-one] |
| 1000 to 3000 | Cn1cc(-n2ccc(=O)c(COc3ccc(C(=O)NCC(F)(F)F)cc3)n2)cn1 [Example 18, 4-{[1-(1-methyl-1H-pyrazol-4-yl)-4-oxo-1,4-dihydropyridazin-3-yl]methoxy}-N-(2,2,2-trifluoroethyl) benzamide] |
| 1000 to 3000 | COCCOC(=O)Nc1ccc(CCc2nn(-c3cnn(C)c3)ccc2=O)cc1 [Example 120, 2-methoxyethyl (4-{2-[1-(1-methyl-1H-pyrazol-4-yl)-4-oxo-1,4-dihydropyridazin-3-yl]ethyl}phenyl)carbamate] |
| < 100 | CCn1cc(-n2ccc(=O)c(COc3ccc4ncc(-c5cccc(F)c5)cc4c3)n2)cn1 [Example 90, 1-(1-ethyl-1H-pyrazol-4-yl)-3-({[3-(3-fluorophenyl)quinolin-6-yl]oxy}methyl)pyridazin-4(1H)-one] |
| < 100 | O=c1ccn(-c2cc(F)c(F)c(F)c2)nc1COc1ccc2ncccc2c1 [Example 10, 3-[(quinolin-6-yloxy)methyl]-1-(3,4,5-trifluorophenyl) pyridazin-4(1H)-one] |
| < 100 | Cn1cc(-n2ccc(=O)c(COc3ccc4ncc(-c5cnn(C6CCNCC6)c5)cc4c3)n2)cn1 [Example 94, 1-(1-methyl-1H-pyrazol-4-yl)-3-[({3-[1-(piperidin-4-yl)-1H-pyrazol-4-yl]quinolin-6-yl}oxy)methyl]pyridazin-4(1H)-one] |
| 100 to 1000 | CNC(=O)c1ccc(OCc2nn(-c3cnn(C)c3)ccc2=O)cc1 [Example 16, N-methyl-4-{[1-(1-methyl-1H-pyrazol-4-yl)-4-oxo-1,4-dihydropyridazin-3-yl]methoxy}benzamide] |
| < 100 | Cn1cc(-n2ccc(=O)c(COc3ccc4ncc(NC(=O)Nc5cnc6ccc(OCc7nn(-c8cnn(C)c8)ccc7=O)cc6c5)cc4c3)n2)cn1 [Example 111, 1,3-bis(6-{[1-(1-methyl-1H-pyrazol-4-yl)-4-oxo-1,4-dihydropyridazin-3-yl]methoxy}quinolin-3-yl)urea] |
| 100 to 1000 | COCCOc1ccnc2ccc(OCc3nn(-c4cnn(C)c4)ccc3=O)cc12 [Example 34, 3-({[4-(2-methoxyethoxy)quinolin-6-yl]oxy}methyl)-1-(1-methyl-1H-pyrazol-4-yl)pyridazin-4(1H)-one] |
| < 100 | COCc1cnc2ccc(OCc3nn(-c4cnn(C)c4)ccc3=O)cc2c1 [Example 73, 3-({[3-(methoxymethyl)quinolin-6-yl]oxy}methyl)-1-(1-methyl-1H-pyrazol-4-yl)pyridazin-4(1H)-one] |
| < 100 | CCn1cc(-n2ccc(=O)c(COc3ccc4ncccc4c3)n2)cn1 [Example 22, 1-(1-ethyl-1H-pyrazol-4-yl)-3-[(quinolin-6-yloxy)methyl] pyridazin-1(4H)-one] |
| 1000 to 3000 | CCOc1cnc2ccc(C(C)Oc3nn(-c4cnn(C)c4)ccc3=O)cc2c1 (single isomer, unassigned) [Example 142, 3-[1-(3-ethoxyquinolin-6-yl)ethoxy]-1-(1-methyl-1H-pyrazol-4-yl)pyridazin-4(1H)-one] |
| < 100 | COCCOc1cnc2ccc(SCc3nn(-c4cnn(C)c4)ccc3=O)cc2c1 [Example 99, 3-({[3-(2-Methoxyethoxy)quinolin-6-yl]sulfanyl}methyl)-1-(1-methyl-1H-pyrazol-4-yl)pyridazin-4(1H)-one] |
| < 100 | CC(Oc1nn(-c2cnn(C)c2)ccc1=O)c1ccc2ncc(-c3cnn(C)c3)cc2c1 (stereo not shown) [Example 136, 1-(1-methyl-1H-pyrazol-4-yl)-3-{1-[3-(1-methyl-1H-pyrazol-4-yl)quinolin-6-yl]ethoxy}pyridazin-4(1H)-one] |
| < 100 | CCOc1cnc2ccc(C(C)Oc3nn(-c4cnn(C)c4)ccc3=O)cc2c1 (single isomer, unassigned) [Example 141, 3-[1-(3-ethoxyquinolin-6-yl)ethoxy]-1-(1-methyl-1H-pyrazol-4-yl)pyridazin-4(1H)-one] |
| < 100 | COc1ccnc2ccc(OCc3nn(-c4cnn(C)c4)ccc3=O)cc12 [Example 48, 3-{[(4-Methoxyquinolin-6-yl)oxy]methyl}-1-(1-methyl-1H-pyrazol-4-yl)pyridazin-4(1H)-one] |
| 1000 to 3000 | Cn1cc(-n2ccc(=O)c(CCc3ccc4nccnc4c3)n2)cn1 [Example 60, 1-(1-Methyl-1H-pyrazol-4-yl)-3-[2-(quinoxalin-6-yl)ethyl]pyridazin-4(1H)-one] |
| < 100 | Cn1cc(-n2ccc(=O)c(COc3ccc4ncc(-c5cccnc5)cc4c3)n2)cn1 [Example 74, 1-(1-Methyl-1H-pyrazol-4-yl)-3-{[(3-pyridin-3-ylquinolin-6-yl)oxy]methyl}pyridazin-4(1H)-one] |
| 100 to 1000 | CC(Oc1nn(-c2cnn(C)c2)ccc1=O)c1ccc2ncccc2c1 (stereo not shown) [Example 130, 1-(1-methyl-1H-pyrazol-4-yl)-3-(1-quinolin-6-ylethoxy)pyridazin-4(1H)-one] |
| < 100 | COCCOc1cnc2ccc(OCc3nn(-c4cc(F)cc(C#N)c4)ccc3=O)cc2c1 [Example 28, 3-fluoro-5-[3-({[3-(2-methoxyethoxy)quinolin-6-yl]oxy}methyl)-4-oxopyridazin-1(4H)-yl]benzonitrile] |
